The text below walks through data of ChEMBL document CHEMBL4665892, “Structural Basis for the Binding Mechanism of Human Serum Albumin Complexed with Cyclic Peptide Dalbavancin” (J Med Chem, 2020).

This data set in a line: Protein binding in human plasma. The data set is classed as ADME, cell-free. The note with it: read-out: PPB (converted).

Consider `CCCCCCCCCC(=O)N[C@@H](Cc1c[nH]c2ccccc12)C(=O)N[C@H](CC(N)=O)C(=O)N[C@@H](CC(=O)O)C(=O)N[C@@H]1C(=O)NCC(=O)N[C@@H](CCCN)C(=O)N[C@@H](CC(=O)O)C(=O)N[C@H](C)C(=O)N[C@@H](CC(=O)O)C(=O)NCC(=O)N[C@H](CO)C(=O)N[C@@H]([C@H](C)CC(=O)O)C(=O)N[C@@H](CC(=O)c2ccccc2N)C(=O)O[C@@H]1C`, for which the fraction unbound was 0.15.
